What is called IC50 is the concentration that inhibits the measured activity by half.

The target of this test is T1, NLRP3 inflammasome (Homo sapiens, UniProt Q96P20).
T1 construct: endogenous in cells; host or cells: THP-1 cells (PMA-differentiated, LPS-primed, nigericin-stimulated)
T1 sequence (Q96P20 whole entry): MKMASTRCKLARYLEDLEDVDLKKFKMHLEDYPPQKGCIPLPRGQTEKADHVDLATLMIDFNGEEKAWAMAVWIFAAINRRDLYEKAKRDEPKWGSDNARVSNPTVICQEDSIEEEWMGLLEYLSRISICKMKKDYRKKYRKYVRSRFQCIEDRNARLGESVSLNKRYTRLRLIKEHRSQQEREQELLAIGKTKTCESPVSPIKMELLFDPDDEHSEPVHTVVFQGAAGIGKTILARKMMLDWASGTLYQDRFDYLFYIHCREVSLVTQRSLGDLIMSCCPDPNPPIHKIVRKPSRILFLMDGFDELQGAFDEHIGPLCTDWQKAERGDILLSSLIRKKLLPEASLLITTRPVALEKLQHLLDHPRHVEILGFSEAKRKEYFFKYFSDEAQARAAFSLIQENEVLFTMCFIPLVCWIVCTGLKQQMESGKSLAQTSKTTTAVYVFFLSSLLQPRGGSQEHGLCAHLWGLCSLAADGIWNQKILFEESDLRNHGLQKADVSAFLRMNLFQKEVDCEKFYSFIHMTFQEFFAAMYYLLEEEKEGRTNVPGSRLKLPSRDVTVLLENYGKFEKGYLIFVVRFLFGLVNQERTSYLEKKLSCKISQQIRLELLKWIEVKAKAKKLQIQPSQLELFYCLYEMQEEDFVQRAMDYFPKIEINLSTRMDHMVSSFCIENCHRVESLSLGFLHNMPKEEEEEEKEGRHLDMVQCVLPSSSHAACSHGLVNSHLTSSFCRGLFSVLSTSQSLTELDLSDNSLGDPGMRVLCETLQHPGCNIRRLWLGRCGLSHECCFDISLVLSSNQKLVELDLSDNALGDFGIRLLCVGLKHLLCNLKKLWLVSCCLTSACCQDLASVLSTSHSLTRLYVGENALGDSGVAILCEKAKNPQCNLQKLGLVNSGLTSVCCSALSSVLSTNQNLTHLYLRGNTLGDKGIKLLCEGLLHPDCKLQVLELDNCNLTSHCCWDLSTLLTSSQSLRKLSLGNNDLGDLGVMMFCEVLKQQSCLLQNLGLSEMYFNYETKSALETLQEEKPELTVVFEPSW
Put plainly: Cell assay of inhibitory activity against NLRP3 inflammasome in THP-1 cells (LPS/nigericin stimulation, caspase-1 glo readout). The note with it: PMA-differentiated THP-1 cells; LPS 500 ng/ml 3 h, compound 1 h, nigericin 10 µg/ml 30 min; active caspase-1 in supernatant. The format is cell-based. As to the method: Experimental Example 1: Cell assay of inhibitory activity of the compounds of the present disclosure against NLRP3 inflammasome
Test compounds: the compounds of the present disclosure prepared in accordance with the methods described in the Examples
THP-1 was an immortalized human macrophage cell line.
Test instrument: Microplate reader (manufactured by PE)
• 1. THP-1 cells were cultured in 1640 complete medium (500 ml 1640+56 ml FBS+560 µl 1000× P/S+2 µl mercaptoethanol), and used within 3 to 20 passages. • 2. Coating of culture plates: 100 µl of polylysine solution was added into a 96-well cell culture plate and incubated at 37°C for 30min. The solution was discarded, and the plate was washed twice with PBS for later use. • 3. Induction of differentiation of THP-1: THP-1 cells were resuspended in an appropriate amount of complete medium containing 10 ng/ml PMA to achieve a cell density of 5×10^5 cells /ml in the suspension. The cell suspension was added into a 96-well plate with 100 µl of cell suspension per well, and the 96-well plate was cultured overnight for 16 hours in a 37°C CO2 cell incubator. • 4. Stimulation of THP-1: • a. Serum-free THP-1 culture medium containing LPS was added to achieve a final concentration of 500 ng/ml, and the resultant was cultured in a 37°C CO2 cell incubator for 3h; • b. The compounds to be tested were prepared into stock solutions at gradient concentrations with DMSO. The resulting solutions were added to the cells, evenly mixed, and finally diluted at 1:1000. The 96-well plate was cultured in a 37°C CO2 cell incubator for 1h. • c. Nigericin was added to each well to achieve a final concentration of 10 µg/ml, and the resultant was cultured in a 37°C CO2 cell incubator for 30 min. • d. The resulting culture medium in each well was transferred to a new culture plate, which was then centrifuged at 3000 rpm for 5min. Afterwards, the supernatant was transferred to a new 96-well plate. • e. The collected supernatant samples of the cell culture medium were determined by using a commercial caspase-1 glo kit, and the content of human active caspase-1 was determined according to the manufacturer's instructions.
`C#Cc1ccc(-c2nnc(NC(=O)CNC)cc2C)c(O)c1` [Compound 1, N-(6-(4-ethynyl-2-hydroxyphenyl)-5-methylpyridazin-3-yl)-2-(methylamino)acetamide] displayed an IC50 of 16.5 nM.
The value for `C#Cc1ccc(-c2nnc(NC(=O)CNCC)cc2C)c(O)c1` [Compound 2, N-(6-(4-ethynyl-2-hydroxyphenyl)-5-methylpyridazin-3-yl)-2-(ethylamino)acetamide] was 18.1 nM.
The compound `C#Cc1ccc(-c2nnc(NC(=O)CNC(C)C)cc2C)c(O)c1` [Compound 3, N-(6-(4-ethynyl-2-hydroxyphenyl)-5-methylpyridazin-3-yl)-2-(isopropylamino)acetamide] showed an IC50 of 32.4 nM.
The value for `C#Cc1ccc(-c2nnc(NC(=O)CNC)cc2C2CC2)c(O)c1` [Compound 7, N-(5-cyclopropyl-6-(4-ethynyl-2-hydroxyphenyl)pyridazin-3-yl)-2-(methylamino)acetamide] was 1.3 nM; that for `C#Cc1ccc(-c2nnc(NC(=O)CNCC)cc2C2CC2)c(O)c1` [Compound 8, N-(5-cyclopropyl-6-(4-ethynyl-2-hydroxyphenyl)pyridazin-3-yl)-2-(ethylamino)acetamide] was 1.4 nM; that for `C#Cc1ccc(-c2nnc(NC(=O)CNC(C)C)cc2C2CC2)c(O)c1` [Compound 9, N-(5-cyclopropyl-6-(4-ethynyl-2-hydroxyphenyl)pyridazin-3-yl)-2-(isopropylamino)acetamide] was 9.7 nM.
In turn, `C#Cc1ccc(-c2nnc(NC(=O)CNC3CC3)cc2C2CC2)c(O)c1` [Compound 10, N-(5-cyclopropyl-6-(4-ethynyl-2-hydroxyphenyl)pyridazin-3-yl)-2-(cyclopropylamino)acet amide] came in with an IC50 of 19.2 nM.
For `C#Cc1ccc(-c2nnc(NC(=O)CN)cc2C2CC2)c(O)c1` [Compound 13, 2-amino-N-(5-cyclopropyl-6-(4-ethynyl-2-hydroxyphenyl)pyridazin-3-yl)acetamide] the value was 23.2 nM; for `C#Cc1ccc(-c2nnc(NC(=O)CNC)cc2C(C)C)c(O)c1` [Compound 16, N-(6-(4-ethynyl-2-hydroxyphenyl)-5-isopropylpyridazin-3-yl)-2-(methylamino)acetamide], 8.5 nM; for `CNCC(=O)Nc1cc(C)c(-c2ccc(C(F)(F)F)cc2O)nn1` [Compound 17, N-(6-(2-hydroxy-4-(trifluoromethyl)phenyl)-5-methylpyridazin-3-yl)-2-(methylamino)acet amide], 17.8 nM.
For `CNCC(=O)Nc1cc(C(C)C)c(-c2ccc(C(F)(F)F)cc2O)nn1` [Compound 19, N-(6-(2-hydroxy-4-(trifluoromethyl)phenyl)-5-isopropylpyridazin-3-yl)-2-(methylamino)a cetamide] the value was 3.4 nM; for `CNCC(=O)Nc1cc(C2CC2)c(-c2ccc(C(F)(F)F)cc2O)nn1` [Compound 20, N-(5-cyclopropyl-6-(2-hydroxy-4-(trifluoromethyl)phenyl)pyridazin-3-yl)-2-(methylamino)acetamide], 0.3 nM.
The value for `C#Cc1ccc(-c2nnc(NC(=O)CNC3CCC3)cc2C)c(O)c1` [Compound 31, N-(6-(4-ethynyl-2-hydroxyphenyl)-5-methylpyridazin-3-yl)-2-(cyclobutylamino)acetamide] was 13.1 nM; that for `C#Cc1ccc(-c2nnc(NC(=O)CNC3CC(O)C3)cc2C2CC2)c(O)c1` (stereo not drawn) [Compound 33, N-(5-cyclopropyl-6-(4-ethynyl-2-hydroxyphenyl)pyridazin-3-yl)-2-((3-hydroxycyclobutyl)amino)acetamide] was 14.5 nM.
Compound `C#Cc1ccc(-c2nnc(NC(=O)CNCC3CC3)cc2C)c(O)c1` [Compound 34, N-(6-(4-ethynyl-2-hydroxyphenyl)-5-methylpyridazin-3-yl)-2-((cyclopropylmethyl)amino) acetamide] displayed a 50% inhibitory concentration (IC50) of 18.8 nM. The IC50 values of the last two compounds are within 1.5-fold of each other.
Regarding `C#Cc1ccc(-c2nnc(NC(=O)[C@@H](C)NC)cc2C2CC2)c(O)c1` [Compound 36, (R)-N-(5-cyclopropyl-6-(4-ethynyl-2-hydroxyphenyl)pyridazin-3-yl)-2-(methylamino)prop anamide], the midpoint of inhibition, the IC50, lay at 2.9 nM.
As to `C#Cc1ccc(-c2nnc(NC(=O)[C@H](C)NC)cc2C2CC2)c(O)c1` [Compound 37, (S)-N-(5-cyclopropyl-6-(4-ethynyl-2-hydroxyphenyl)pyridazin-3-yl)-2-(methylamino)prop anamide], the midpoint of inhibition, the IC50, lay at 29.4 nM.
The value for `C#Cc1ccc(-c2nnc(NC(=O)[C@H]3CCCN3)cc2C2CC2)c(O)c1` [Compound 43, (R)-N-(5-cyclopropyl-6-(4-ethynyl-2-hydroxyphenyl)pyridazin-3-yl)pyrrolidine-2-carboxamide] was 21.4 nM; that for `C#Cc1ccc(-c2nnc(NC(=O)[C@@H](C)N)cc2C2CC2)c(O)c1` [Compound 44, (R)-2-amino-N-(5-cyclopropyl-6-(4-ethynyl-2-hydroxyphenyl)pyridazin-3-yl)propanamide] was 6.4 nM.
For `C[C@@H](N)C(=O)Nc1cc(C2CC2)c(-c2ccc(C(F)(F)F)cc2O)nn1` [Compound 50, (R)-2-amino-N-(5-cyclopropyl-6-(2-hydroxy-4-(trifluoromethyl)phenyl)pyridazin-3-yl)pro panamide] the value was 6.8 nM; for `C#Cc1ccc(-c2nnc(NC(=O)[C@H](N)COC)cc2C2CC2)c(O)c1` [Compound 51, (R)-2-amino-N-(5-cyclopropyl-6-(4-ethynyl-2-hydroxyphenyl)pyridazin-3-yl)-3-methoxyp ropanamide], 14.6 nM.
The value for `C#Cc1ccc(-c2nnc(NC(=O)[C@H](N)Cc3ccccc3)cc2C2CC2)c(O)c1` [Compound 52, (R)-2-amino-N-(5-cyclopropyl-6-(4-ethynyl-2-hydroxyphenyl)pyridazin-3-yl)-3-phenylpro panamide] was 12.9 nM; that for `C#Cc1ccc(-c2nnc(NC(=O)[C@H](N)C3CC3)cc2C2CC2)c(O)c1` [Compound 53, (R)-2-amino-2-cyclopropyl-N-(5-cyclopropyl-6-(4-ethynyl-2-hydroxyphenyl)pyridazin-3-yl)acetamide] was 5.9 nM; that for `C#Cc1ccc(-c2nnc(NC(=O)[C@H](N)CO)cc2C2CC2)c(O)c1` [Compound 55, (R)-2-amino-N-(5-cyclopropyl-6-(4-ethynyl-2-hydroxyphenyl)pyridazin-3-yl)-3-hydroxypr opanamide] was 23.6 nM.
`C#Cc1ccc(-c2nnc(NC(=O)[C@H](N)C(C)C)cc2C2CC2)c(O)c1` [Compound 56, (R)-2-amino-N-(5-cyclopropyl-6-(4-ethynyl-2-hydroxyphenyl)pyridazin-3-yl)-3-methylbut anamide] had an IC50 of 7.1 nM.
The compound `C#Cc1ccc(-c2nnc(NC(=O)[C@H](N)[C@H](C)O)cc2C2CC2)c(O)c1` [Compound 57, (2R, 3S)-2-amino-N-(5-cyclopropyl-6-(4-ethynyl-2-hydroxyphenyl)pyridazin-3-yl)-3-hydroxyb utanamide] showed an IC50 of 17.5 nM. Against the preceding compound, the IC50 is about 2.5-fold higher.
On to `C#Cc1ccc(-c2nnc(NC(=O)[C@H](N)[C@@H](C)O)cc2C2CC2)c(O)c1` [Compound 59, (2R,3R)-2-amino-N-(5-cyclopropyl-6-(4-ethynyl-2-hydroxyphenyl)pyridazin-3-yl)-3-hydro xybutanamide], for which the IC50 came to 32.3 nM.

The record behind these values is patent EP4759805A1, “NLRP3 INFLAMMASOME INHIBITOR AND USE THEREOF” (NEUROCRINE BIOSCIENCES, INC., priority 2023, dated 2025).
